Literature values in patent US10029116B2, “Method for the treatment of acne” (DUSA PHARMACEUTICALS, INC., priority 2012, dated 2018).

Legend:
protoporphyrin IX = conditions: mouse skin
[1] = test system: protoporphyrin IX in acne lesions

NCC(=O)CCC(=O)O [ALA, aminolevulinic acid]
time for protoporphyrin levels to return to near pretreatment baseline (protoporphyrin IX): about 18 hours
time to peak protoporphyrin IX concentration (protoporphyrin IX): about six
time by which the ability of light to excite protoporphyrin IX in acne lesions disappeared ([1]; no occlusive covering): ≤ 24 h
persistence of the ability of light to excite protoporphyrin IX in skin having acne lesions ([1]; occlusive covering placed over the skin): ≤ 24 h
